Patent publication US11220548B2, “Treatment of C1013G/CXCR4-associated Waldenstrom's macroglobulinemia with an anti-CXCR4 antibody” (BRISTOL-MYERS SQUIBB COMPANY, priority 2013, dated 2022)

Tested on: C1013G/CXCR4 variant-harboring BCWM.1 cells
Assay: In vivo dissemination of C1013G/CXCR4-mutated WM cells (immunohistochemistry for human CD20 and CXCR4)
Design: species or system SCID/Bg mice
Settings: 10 mg/kg intraperitoneally, 3-4 times per week for 3 weeks
Experimental: FIGS. 20A-20E: FIGS. 20A-20E show representative histochemical images of the effect of BMS-936564 on C1013G/CXCR4-mutated cells in WM cells in vivo. SCID/Bg mice were injected intravenously with either C1013G/CXCR4 variant-harboring BCWM.1 cells or empty/control vector-infected cells (control cells). Mice were treated with either BMS-936564 or control antibody (10 mg/kg, intraperitoneally; ×3/4/week; mice: 5/group). After 3 weeks mice were euthanized and organs harvested. Hematoxylin-eosin immunohistochemical staining for human CD20 and CXCR4 were performed on femur BM (FIG. 20A), liver (FIG. 20B), kidney (FIG. 20C), lung (FIG. 20D), and lymph nodes (FIG. 20E) (Nikon, Melville, N.Y.; 4×, 10× or 20× magnifications are shown).
Murine tissues (BM, liver, kidney, lung and lymph nodes) were analyzed and quantified for the expression of human CD20 and human CXCR4. These tissues were fixed in formalin 10%, ethanol 70% was used as storage solution; and embedded in paraffin. Paraffin sections were incubated with anti-human-CXCR4 (Abcam, Cambridge, Mass.), and anti-human-CD20 (Dako, Carpinteria, Calif.) monoclonal antibodies, using the Leica Bond III automated staining platform (Leica Biosystems, Buffalo Grove, Ill.). […] Quantification of CD20 and CXCR4 staining was performed using NIS Elements software (Nikon, Melville, N.Y.). […]

For “BMS-936564: fully human anti-CXCR4 monoclonal antibody; VH SEQ ID NO: 25, VL SEQ ID NO: 29”, the “involvement of lymph nodes” value was “absent” and the “CXCR4+/CD20+ cell infiltration in femur, liver, kidney and lung” value (vs control antibody-treated mice) was “significant reduction”.
